From patent publication US9593084B2 (Parion Sciences, Inc., priority 2012, dated 2017)
Marks after values point to notes of the source that are not given here.

Experiments:
[1] = test system: human bronchial epithelial (HBE) cells; assay: Airway surface liquid drug clearance and metabolism by human airway epithelium; assay type: in vitro ADME
Protocol: The disappearance of 33 from the apical surface and airway epithelial metabolism were assessed in human bronchial epithelial (HBE) cells (Table 3). In these experiments 25 μL of a 25 μM solution of ENaC blocker was added to the apical surface of HBE cells grown at an air/liquid interface, and the drug and metabolite concentration in the apical and basolateral compartment was measured over 2 h by UPLC.
Therefore, the compounds of formula (I) have a longer half-life on mucosal surfaces compared to these know compounds as evidenced by the data shown in Table G. The disappearance of Compound 33 from the apical surface and airway epithelial metabolism were assessed in HBE and compared to Comparative Example 1 (Table H). In these experiments 25 μL of a 25 μM solution of ENaC blocker was added to the apical surface of HBE cells grown at an air/liquid interface, and the drug concentration in the apical and basolateral compartment was measured over 2 h by UPLC.

[2] = Plasma potassium levels in sheep of the MCC study; assay type: in vivo
Protocol: In these studies, adult sheep were restrained and nasally intubated with an endotracheal tube. Aerosolized test articles were administered over 10-15 minutes to sheep. Radiolabeled ^99mTc-sulfur colloid (TSC, 3.1 mg/mL; containing approximately 20 mCi) was then administered at a specified time four or eight hours after test article. The radiolabeled aerosol was administered through the endotracheal tube for about 5 minutes. The sheep were then extubated, and total radioactive counts in the lung were measured every 5 minutes for a 1-hour observation period. The rate of radiolabel clearance from the lung is representative of the MCC rate in the animal. The advantage of this system is that it closely simulates the human lung environment. The model also allows for the collection of simultaneous PK/PD information through plasma and urine sampling over the test period. There are also several techniques to measure the drug concentrations on the airway surface during the MCC measurements. These include the collection of exhaled breath condensates or a filter paper method to obtain ASL via bronchoscopy.
The compound of Comparative Example 1 can be seen on page 15 of US 2005/0080093 and as Compound 2 on page 90 of WO 2008/031048, and as Compound 2 on pages 42-43 of WO 2008/031028. […] In order to evaluate this potential, it is beneficial to have MCC activity in vivo and not cause elevation of plasma potassium at the useful dose. One model to assess this is the sheep MCC model described below.

Sheep MCC = assay: Mucociliary clearance (MCC) studies in sheep; assay type: in vivo
In short: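 MCC read-out: gamma-camera counts over right lung at 5-min intervals for one hour, expressed as 30-min slope, 1-h AUC or maximal clearance. Radiolabelled TSC inhaled 4 or 8 h after nebulized test agent (4 mL, optionally followed by HS) in intubated adult sheep.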

[3] = HBE cells at air/liquid interface, 25 μL of 25 μM apical, mean ± SD
[4] = sheep, aerosol, 0.24 nmol/kg (3 μM), MCC at 4 h post-dose
[5] = sheep, aerosol, 0.24 nmol/kg (3 μM), MCC at 8 h post-dose

In the case of `N=C(NCCCCc1ccc(C[C@H](N)C(=O)Nc2ccc(CCCN(C[C@H](O)[C@@H](O)[C@H](O)[C@H](O)CO)C[C@H](O)[C@@H](O)[C@H](O)[C@H](O)CO)cc2)c2ccccc12)NC(=O)c1nc(Cl)c(N)nc1N` [Compound 33, 3,5-diamino-N—(N-(4-(4-((S)-2-amino-3-(4-(3-(bis((2S,3R,4R,5R)-2,3,4,5,6-pentahydroxyhexyl)amino)propyl)phenylamino)-3-oxopropyl)naphthalen-1-yl)butyl)carbamimidoyl)-6-chloropyrazine-2-carboxamide], the “% of Apical Mass as Metabolites (2 h)” value [1, 3] was 4%, the “% on Basolateral Side as Metabolites (2 h)” value [1, 3] was 32% and the “fate on the apical side after 2 h incubation” value ([1]; HBE cells, apical surface, 37° C.) was “mostly unmetabolized on the apical side”. The “effect on plasma potassium” value ([2]; sheep of the MCC study, at efficacious dose) was “free of potassium elevations”, the “Therapeutic Index, times greater renal safety than Comparative Example 1” value ([2]; sheep, versus Comparative Example 1) was “more than 1,000” and the “benefit to risk ratio” value (Sheep MCC; sheep MCC model) was “greater than 1000”. The “effect on MCC compared to vehicle” value (Sheep MCC; sheep, 0.24 nmol/kg (3 μM), 4 h post-dose) was “enhanced MCC compared to vehicle control”, the “Initial Slope (4.0-4.5 h)” value (Sheep MCC; sheep, 0.240 nmol/kg (30 μM), MCC at 4 h post-dose) was 37.5* (4) and the “AUC (% CI × h)” value (Sheep MCC; sheep, 0.240 nmol/kg, MCC at 4 h post-dose) was 17.4* (4) % CI × h. For the same molecule, the “effect of hypertonic saline (HS) on the MCC effect” value (Sheep MCC; sheep, 7% HS dosed immediately following 0.24 nmol/kg, MCC eight hours after combined dosing) was “HS increased the effect of Compound 33 on MCC”, the “duration of action on MCC vs. vehicle” value (Sheep MCC; sheep, 8 hours post dose) was “enhanced duration action of MCC vs. vehicle” and the “AUC (% Cl-h)” value (Sheep MCC; [4]) was 17.4* (4) % Cl-h. The “Initial Slope (4.0-4.5 h)” value (Sheep MCC; [4]) was 37.5* (4), the “AUC (% Cl-h)” value (Sheep MCC; [5]) was 11.7* (4) % Cl-h and the “Initial Slope (8.0-8.5 h)” value (Sheep MCC; [5]) was 25.8* (4). For the same molecule, the “MCC Highest Submaximal Dose” value (Sheep MCC; sheep, solution concentration given beside the dose) was <0.24 nmol/kg (3 μM) and the “Therapeutic Ratio (Benefit/Risk)” value (Sheep MCC; sheep, top dose without plasma potassium elevation vs MCC highest submaximal dose) was greater than 100.
